According to ChEMBL document CHEMBL4033689, “Potential inhibitors of human carbonic anhydrase isozymes I and II: Design, synthesis and docking studies of new 1,3,4-thiadiazole derivatives” (Bioorg Med Chem, 2017):

biological target: Carbonic anhydrase 2 (Homo sapiens, UniProt P00918); assay: Inhibition of carbonic anhydrase-2 in […] assessed as reduction in H+ release using CO2 as substrate by bromine thymol blue indicator based assay

IC50	Structure (SMILES)
Not Active	O=C(CSc1nnc(Nc2ccccc2)s1)N/N=C/c1ccc(-c2ccc(Cl)c(Cl)c2)o1
Not Active	O=C(CSc1nnc(Nc2ccccc2)s1)N/N=C/c1ccc(-c2ccc([N+](=O)[O-])cc2)o1
Not Active	O=C(CSc1nnc(Nc2ccccc2)s1)N/N=C/c1ccc(-c2ccc(Cl)cc2[N+](=O)[O-])o1
